Test system: SW1271 complex spheroids with HUVEC/MSC, growth, % test/control
Experiment: Anticancer human tumor SW1271 cell line growth inhibition [AhR];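 note: spheroids exposed to agents for 7 days before readout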
Conditions: for IC50: curve of first compound; for viability, T/C: stronger effect = lower value
Summary of the method: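 Spheroids combined tumor cells with HUVEC endothelial cells and human MSCs as stroma. AhR antagonists were paired with standard or investigational drugs, each dosed in half-log steps down from near clinical Cmax, or from 10 microM where Cmax was unknown.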

Q: Which IC50 (second compound 0.1 µM) does the source give for COc1ccc([C@@H](O)c2cc(-c3ncnc4cc(N5CCOCC5)ccc34)c(F)cc2Cl)nn1 + CC(CO)NC(=O)c1cc(-c2ccc(Cl)cc2)nn(-c2cnn(C)c2)c1=O here?
A: 2690 nM

Q: And the IC50 (second compound 0.316 µM)?
A: 1900 nM

Q: What about the IC50 (second compound 1 µM) of the same compound?
A: 1410 nM

Q: What about the IC50 (second compound 3.16 µM) of the same compound?
A: 1480 nM

Q: What about the IC50 (second compound 10 µM) of the same compound?
A: 931 nM

Q: And the viability, T/C (second compound 0.1 µM, first compound 0.0316 µM)?
A: 83.9%

Q: What about the viability, T/C (second compound 0.1 µM, first compound 0.1 µM) of the same compound?
A: 96.4%

Q: And the viability, T/C (second compound 0.1 µM, first compound 0.316 µM)?
A: 90.9%

Q: And the viability, T/C (second compound 0.1 µM, first compound 1 µM)?
A: 66.5%

Q: What about the viability, T/C (second compound 0.1 µM, first compound 3.16 µM) of the same compound?
A: 49.6%

Q: And the viability, T/C (second compound 0.1 µM, first compound 10 µM)?
A: 28%

Q: What about the viability, T/C (second compound 0.316 µM, first compound 0.0316 µM) of the same compound?
A: 101%

Q: What about the viability, T/C (second compound 0.316 µM, first compound 0.1 µM) of the same compound?
A: 91.4%

Q: What about the viability, T/C (second compound 0.316 µM, first compound 0.316 µM) of the same compound?
A: 77.3%

Q: And the viability, T/C (second compound 0.316 µM, first compound 1 µM)?
A: 58.6%

Q: What about the viability, T/C (second compound 0.316 µM, first compound 3.16 µM) of the same compound?
A: 43.1%

Q: What about the viability, T/C (second compound 0.316 µM, first compound 10 µM) of the same compound?
A: 33.2%

Q: And the viability, T/C (second compound 1 µM, first compound 0.0316 µM)?
A: 103%

Q: And the viability, T/C (second compound 1 µM, first compound 0.1 µM)?
A: 108%

Q: And the viability, T/C (second compound 1 µM, first compound 0.316 µM)?
A: 78.6%

Q: What about the viability, T/C (second compound 1 µM, first compound 1 µM) of the same compound?
A: 55.8%

Q: What about the viability, T/C (second compound 1 µM, first compound 3.16 µM) of the same compound?
A: 40.6%

Q: And the viability, T/C (second compound 1 µM, first compound 10 µM)?
A: 29.6%

Q: What about the viability, T/C (second compound 3.16 µM, first compound 0.0316 µM) of the same compound?
A: 92.2%

Q: What about the viability, T/C (second compound 3.16 µM, first compound 0.1 µM) of the same compound?
A: 80.4%

Q: And the viability, T/C (second compound 3.16 µM, first compound 0.316 µM)?
A: 68.3%

Q: What about the viability, T/C (second compound 3.16 µM, first compound 1 µM) of the same compound?
A: 56.3%

Q: And the viability, T/C (second compound 3.16 µM, first compound 3.16 µM)?
A: 39.2%

Q: What about the viability, T/C (second compound 3.16 µM, first compound 10 µM) of the same compound?
A: 36.5%

Q: And the viability, T/C (second compound 10 µM, first compound 0.0316 µM)?
A: 84%

Q: And the viability, T/C (second compound 10 µM, first compound 0.1 µM)?
A: 76.9%

Q: And the viability, T/C (second compound 10 µM, first compound 0.316 µM)?
A: 59.8%

Q: What about the viability, T/C (second compound 10 µM, first compound 1 µM) of the same compound?
A: 50.3%

Q: And the viability, T/C (second compound 10 µM, first compound 3.16 µM)?
A: 38%

Q: And the viability, T/C (second compound 10 µM, first compound 10 µM)?
A: 29.1%

— PubChem BioAssay AID1919017 (Molecular Pharmacology Branch, DTP, NCI, 2023)
